The text below walks through data of patent US20100062067A1, “COMPOSITIONS COMPRISING MACROMOLECULAR ASSEMBLIES OF LIPID AND SURFACTANT” (MALVERN COSMECEUTICS LIMITED, priority 2006, published 2010).

Read-outs that look alike come from different tables or passages of the source. Marks after values point to notes of the source that are not given here.

A short description of data set [1]: Turbidity of surfactant/lipid compositions, formation of macromolecular complexes (Example 1). In kind it is physicochemical. Conditions: 2.5% surfactant, 1% 90H lipid, ca. 0.01% S LPC co-surfactant (as 0.05% SL 80-3) in water, room temperature. The protocol: Briefly, to the appropriate volume of warm water (ca. 60° C.), SL 80-3 was added. […] 90H was then added gradually, with heating and stirring maintained throughout and for a further 45 minutes after completion.
After mixing the solution was stirred and heated to around 60-70° C.
The required quantity of warm lipid emulsion was slowly added to the warm surfactant solution while stirring with the temperature maintained.

The nature of data set [2]: Clarity and turbidity of surfactant/active agent mixtures in water (Comparative Example 2). In kind it is physicochemical. The note with it: surfactant 5% w/w + TECA 0.5% w/w in water, visual.
Method: The appropriate quantity of surfactant and active agent was added to water, which was then warmed to approximately 50° C. and stirred. The mixture was then homogenised for 10 minutes. Percentage values specified in this experiment refer to the weight of the component in question as a proportion of the total weight of the composition. Once the mixtures were prepared they were visually examined to determine whether the surfactant component had solubilized the active agent in the aqueous medium. The clarity of a mixture was categorized as being clear if there was no significant visible opacity to the naked eye, whereas a mixture was categorized as cloudy if there was significant visible disruption to the passage of light. For a quantitative analysis of the clarity of aqueous solutions of surfactant and active, certain samples were examined using a turbidity meter ([…] , from Hach-Lange). The turbidity meter was calibrated prior to use, with two known standards (0 and 40 FNU).
Data set [3] is described as follows: Visual clarity of surfactant/lipid mixtures in water (Comparative Example 1). In kind it is physicochemical. The method, then:
The appropriate quantity of lipid and surfactant was added to water, which was then warmed to approximately 50° C. and stirred until a uniform emulsion was formed. The mixture was then homogenised for 10 minutes. Percentage values specified in this experiment refer to the weight of the component in question as a proportion of the total weight of the composition. Once the mixtures were prepared they were visually examined to determine whether the surfactant component had solubilized the lipid component in the aqueous medium. The clarity of a mixture was categorized as being clear if there was no significant visible opacity to the naked eye, whereas a mixture was categorized as cloudy if there was significant visible disruption to the passage of light.

For data set [4] the following is noted: cited from earlier work; for Average HLB: rough average of manufacturer and literature values.
Data set [5] in a line: Solubilisation of piroctone olamine in compositions of the invention (Example 7). In kind it is physicochemical. Conditions: dried material (15 g Brij 35P, 6 g 90H, 0.3 g SL 80-3, 4.8 g active) re-solubilized into 50 g of water. The protocol: Macromolecular assemblies of the present invention which incorporated piroctone olamine were prepared in isopropanol using a method analogous to that described in Example 6 (in that case using ethanol solvent), before being dried by rotary evaporation. The dried material having the composition: • Surfactant—15 g Brij 35P • Lipid—6 g 90H • Co-surfactant (indirectly)—0.3 g SL 80-3 • Active agent—4.8 g piroctone olamine • i.e. total piroctone olamine by weight=18.4%
The dried material was then re-solubilized into 50 g of water to provide a concentrated solution (i.e. using the present invention enables aqueous formulations containing at least 9.6% piroctone olamine by weight to be prepared).

The conditions of data set [6]: cited from earlier work.
For data set [7] the following is noted: Surf. Brij 35P 2.5%, lipid 90H 1.0%, co-surf. S LPC ca. 0.01% (as SL 80-3 0.05%), active agent 0.10%.
Method: A stock emulsion of co-surfactant, lipid and active agent was prepared at double the desired final concentration. Co-surfactant was dissolved in water while heating (approximately 60° C.) and stirring, with the conditions maintained for approximately 15 further minutes before the mixture was homogenised (approximately 1 minute at 13,000 RPM, POLYTRON PT 3100 Homogeniser). Lipid was then added gradually, followed by continued stirring and heating until a uniform emulsion is formed. After approximately 45 minutes the mixture was then homogenised (approximately 3 minute at 15,000 RPM). The temperature was then brought to around 50° C. before the active component was added slowly under stirring until a uniform emulsion was present. The final emulsion was then homogenised (approximately 1 minute, ULTRA-TURRAX®-Janke & Kunkel).
A stock solution of surfactant was prepared at double (i.e. 5%) the desired final concentration of 2.5%, by mixing of the surfactant with the appropriate volume of water.
Macromolecular complexes incorporating active agents were then prepared by the dropwise addition of the warm lipid containing emulsion to an equal volume of surfactant solution while stirring and heating 50° C.
Samples were then allowed to cool to room temperature before being analyzed.
For a quantitative analysis of the clarity of aqueous solutions of surfactant, lipid and active, samples were examined using a turbidity meter (Nephla, from Hach-Lange). The turbidity meter was calibrated prior to use, with two known standards (0 and 40 FNU).
The nature of data set [8]: Reconstitution of dried (freeze-dried or rotary evaporated) formulations in water. In kind it is physicochemical. The note with it: rotary evaporated Brij 35P/90H/SL 80-3/progesterone composition. The source says: Of those samples which were dried, all were easily reconstituted into water at the same concentration as prior to drying.
Reconstitution of the freeze-dried composition containing Brij 35P (2.5%), 90H (1%), SL 80-3 (0.05%) and TECA (0.8%), indicated in the table above by #, was successful at a concentration of 32.4% by dry weight (i.e. an overall concentration of 6% active in the final aqueous solution).
The rotary evaporated composition containing Brij 35P (2.5%), 90H (1%), SL 80-3 (0.05%) and progesterone (0.1%), indicated in the table above by t, was reconstituted in water to provide a clear and colourless solution with a progesterone concentration of 0.25% (i.e. 2500 ug/ml, 2.7% progesterone by dry weight).

The conditions of data set [9]: cited from earlier work. This is another data set of the same source.
Data set [10] in a line: Appearance of aqueous gel preparations (Examples 10 and 11). Conditions: Example 11: TECA and VC-P solutions mixed with Blanose 7HF gel with Nipaguard DMDMH. In kind it is physicochemical. The protocol: A stock solution of surfactant, co-surfactant, lipid and active agent was initially prepared in water at double the desired final concentration. Briefly, co-surfactant, lipid and active agent were dissolved in ethanol, while heating (approximately 30° C.) and stirring. Surfactant material was then added whilst maintaining heat and stir conditions. Ethanol was subsequently removed via rotary evaporation and the resulting dry material was then resolubilized in water with warming (ca. 50° C.) at double the desired final concentration.
Nipaguard PDU was dissolved into water while heating (approximately 30° C.) and stirring. Blanose® 7HF was then added until a uniform gel was formed.
Solution A and Solution B were then mixed in equal volumes to produce the final preparation.
A stock solution of surfactant, co-surfactant, lipid and active agent was initially prepared. Briefly, co-surfactant, lipid and active agent were dissolved in ethanol, while heating (approximately 30° C.) and stirring. Surfactant material was then added whilst maintaining heat and stir conditions. Ethanol was subsequently removed via rotary evaporation and the resulting dry material was then resolubilized in water with warming (ca. 50° C.) at four times the desired final concentration.
A stock solution of surfactant, co-surfactant, lipid and active agent was initially prepared. […]

For `CCCCCCCCCCCC(=O)O` [Lauric Acid, Dodecanoic acid], the “Average Turbidity” value in data set [1] was more than 150 FNU.
On the same count and under the same terms, to `CCCCCCCC(=O)O` [Octanoic Acid, Octanoic acid] belongs more than 150 FNU.
On to `CCCCCCCCCCCCCCCC(=O)O` [Palmitic Acid, Hexadecanoic acid], for which the “Average Turbidity” value in [1] is listed as more than 150 FNU.
Take `CCCCCCCC/C=C\CCCCCCCC(=O)[O-].[K+]` [Potassium Oleate, Potassium oleate]: the “Average Turbidity” value in data set [1] is on record as more than 150 FNU.
For `CCCCCCCCCCCCOS(=O)(=O)[O-].[Na+]` [SDS, Sodium dodecyl sulphate], in [1], the “Average Turbidity” value was determined as 26.2 FNU. The Clarity result was “Cloudy” in [2], “Cloudy” in data set [3] (surfactant 2.5% w/w + lipid 90H 1.0% w/w in water) and “Clear” in data set [3] (surfactant 5.0% w/w + lipid 90H 1.0% w/w in water). In addition, in [4], the “Average HLB” value was 40.
Turning to `O=C(O)c1ccccc1O` [Salicylic Acid, 2-Hydroxybenzoic acid], the “Average Turbidity” value in data set [1] is more than 150 FNU.
With `C[C@H](CCC(=O)[O-])[C@H]1CC[C@H]2[C@@H]3[C@H](O)C[C@@H]4C[C@H](O)CC[C@]4(C)[C@H]3C[C@H](O)[C@]12C.[Na+]` [Sodium cholate], in data set [1], the “Average Turbidity” value worked out at 23.3 FNU.
With `CCCCCCCCCCCCOCCOCCOCCOCCOCCOCCOCCOCCO` [compound 74680, Laureth-8], in data set [1], the “Average Turbidity” value was determined as 131 FNU. Also, the HLB number in data set [4] (literature or reported) is recorded as 13.1. Besides, the “Average HLB” value in data set [4] is listed as 13.1.
Take `Cc1cc(CC(C)CC(C)(C)C)n(O)c(=O)c1.NCCO` (stereo not shown) [piroctone olamine]: the “Active agent content of concentrated aqueous formulation” value in data set [5] was “at least 9.6 % by weight”. Moreover, in data set [6] (15% SDS, pH 7, room temperature), the “Aqueous solubility with surfactant” value is given as “approximately 2.8%”. Further, the Solubility is recorded as 16.0% in data set [6] (in 1,2-Propyleneglycol); 10.0% in data set [6] (in Ethanol); 1.7% in data set [6] (in Glycerol); 5.0% in [6] (in Isopropanol); 1.9% in data set [6] (in PEG-400); 0.05% in [6] (in Water).
As for `CC(=O)[C@H]1CC[C@H]2[C@@H]3CCC4=CC(=O)CC[C@]4(C)[C@H]3CC[C@]12C` [progesterone], the “Turbidity (FNU)” value in data set [7] was 34.20† FNU. For the same compound, the “Active agent by dry weight” value in data set [8] is given as 2.7%. Also, the “Active loading by dry weight” value in [9] (WO00/50007, 1.76 mg/ml using 198 mg of carrier) is “approximately 1.0%”. Moreover, the “Maximum concentration in aqueous dispersion” value is 1.76 mg/mL in data set [9] (WO00/50007, using 198 mg of carrier) and 1.76 mg/mL in [9] (delivery system of WO00/50007 (Example 47), higher carrier concentration).
As to Laureth-9 [P9641], in data set [1], the “Average Turbidity” value is reported as more than 150 FNU. In data set [4], the “Average HLB” value is 13.3.
For the compound Laureth-10 [P9769], in data set [1], the “Average Turbidity” value was determined as 14.02 FNU. For the same compound, in data set [4], the “Average HLB” value is recorded as 13.5.
“Sodium deoxycholate [reference compound]”: the “Average Turbidity” value in data set [1] is 32.6 FNU. For the same compound, the “Average HLB” value in [4] is listed as 24.
vitamin C dipalmitate [VC-P]: the “Appearance of cosmetic gel preparation” value in data set [10] is “clear and colourless aqueous gel”.
